Values quoted from earlier work as cited in US8974795B2, “Controlled release formulation based on hematin anhydride crystals for the induction of an innate immune reaction” (priority 2010, dated 2015).

conditions: not given

Compound | pKa
C=CC1=C(C)c2cc3[n-]c(cc4[n-]c(cc5nc(cc1n2)C(C)=C5C=C)c(C)c4CCC(=O)O)c(CCC(=O)O)c3C.[Fe+2] [heme] | about 4.5

same assay, conditions: Table 1, medium strong organic acids

Compound | pKa
O=C(O)Cc1ccccc1Cl [2-Chlorophenylacetic acid] | 4.07
O=C(O)CCc1cccc(Cl)c1 [3-(3-Chlorophenyl)propanoic acid] | 4.59
O=C(O)CCc1ccccc1Cl [3-(2-Chlorophenyl)propanoic acid] | 4.58
O=C(O)C(c1ccccc1)c1ccccc1 [Diphenylacetic acid] | 3.94
O=C(O)Cc1cccc(Cl)c1 [3-Chlorophenylacetic acid] | 4.14
O=C(O)Cc1ccc(Cl)cc1 [4-Chlorophenylacetic acid] | 4.19
CC(C(=O)O)c1ccccc1 (stereo not drawn) [α-Phenylpropanoic acid] | 4.64
O=C(O)CCc1ccc(Cl)cc1 [3-(4-Chlorophenyl)propanoic acid] | 4.61
Cc1cc(C)cc(C(=O)O)c1 [Mesitylenic acid] | 4.32
CC(Cl)CC(=O)O (stereo not drawn) [3-Chlorobutanoic acid] | 4.05
O=C(O)C(O)c1ccccc1 (racemic) [DL-Mandelic acid] | 3.85
